Reference: PubChem BioAssay (NCI)
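Five compound concentrations were applied to cells in 96-well plates for 48 hours; endpoints were derived by simple linear interpolation of the resulting dose-response curve. TGI: concentration producing complete growth inhibition.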

Columns and labels:
Experiment in all cases: DTP human tumour cell line panel, 48 h
OVCAR-5 ovarian = tested on: OVCAR-5 ovarian
OVCAR-4 ovarian = tested on: OVCAR-4 ovarian
A549 NSCLC = tested on: A549 NSCLC
UO-31 renal = tested on: UO-31 renal
KM12 colon = tested on: KM12 colon
ACHN renal = tested on: ACHN renal
SK-MEL-28 melanoma = tested on: SK-MEL-28 melanoma
SK-MEL-2 melanoma = tested on: SK-MEL-2 melanoma
T-47D breast = tested on: T-47D breast
HS 578T breast = tested on: HS 578T breast

Structure (SMILES)	TGI (OVCAR-5 ovarian) [µM]	TGI (OVCAR-4 ovarian) [µM]	TGI (A549 NSCLC) [µM]	TGI (UO-31 renal) [µM]	TGI (KM12 colon) [µM]	TGI (ACHN renal) [µM]	TGI (SK-MEL-28 melanoma) [µM]	TGI (SK-MEL-2 melanoma) [µM]	TGI (T-47D breast) [µM]	TGI (HS 578T breast) [µM]
O=C1NC2OC(C(O)CO)C(O)C2O1 (stereo not drawn)	> 100	> 100	> 100	> 100	> 100	> 100	> 100	> 100	–	–
COc1ccc(/C=C2\N=C(SC)NC2=O)cc1	> 100	> 100	> 100	45.3	> 100	–	> 100	> 100	> 100	> 100
O=C(CN(c1ccccc1)c1ccccc1)n1nnc2ccccc21	> 100	–	> 100	55.2	–	> 100	> 100	96	–	–
OCc1ccc(C2CC(c3ccco3)=NN2c2ccccc2)o1 (stereo not drawn)	> 100	> 100	> 100	> 100	> 100	> 100	> 100	> 100	–	–
CCOC(=O)C1C2CCC1CC(=NNc1ccc([N+](=O)[O-])cc1[N+](=O)[O-])C2 (stereo not drawn)	> 50	> 50	> 50	> 50	> 50	> 50	> 50	> 50	–	–
CC(C)=CCNc1ncnc2c1ncn2CCC#N	> 100	> 100	> 100	> 100	> 100	> 100	> 100	–	> 100	> 100
Cc1ccc2c(c1)C(=O)C1(C2)Cc2cccc(C)c2C1=O (stereo not drawn)	> 100	> 100	> 100	> 100	> 100	> 100	> 100	–	> 100	> 100
CCCCN=C(c1ccccc1)N1CCOCC1	> 100	–	–	> 100	> 100	> 100	> 100	> 100	–	> 100
CCOC(=O)NC(Nc1ccc([N+](=O)[O-])cc1)(C(F)(F)F)C(F)(F)F	> 100	–	> 100	> 100	> 100	> 100	> 100	> 100	> 100	> 100
COc1cc2c3c(c1OC)C1(C=CC(=O)C=C1)C[C@H]3N(C)CC2	> 100	–	> 100	> 100	> 100	> 100	> 100	> 100	–	–
CCOC(=O)NC(Nc1cccc(C(F)(F)F)c1)(C(F)(F)F)C(F)(F)F	> 100	–	> 100	> 100	> 100	> 100	> 100	> 100	> 100	> 100
CC1CCCC(CC(=O)O)(CC(=O)O)C1 (stereo not drawn)	> 100	> 100	> 100	> 100	> 100	> 100	> 100	> 100	–	> 100
COc1c(C(C)C)cc2c3c1OC(=O)[C@@]31CCCC(C)(C)C1CC2 (stereo partly drawn)	> 100	–	60.1	57.8	–	> 100	> 100	84	–	–
COc1ccc2cc(C(C)C(=O)N3CCOC3=O)ccc2c1 (stereo not drawn)	> 100	> 100	> 100	> 100	> 100	> 100	> 100	–	> 100	> 100
CC(C)(C)C(=O)CC1=Nc2ccccc2SC1(O)CC(=O)C(C)(C)C (stereo not drawn)	69	–	51	44.2	> 100	70.2	66	32	67.8	71.7
CC1=C(CO)C(=O)O[C@@H]([C@@H](CO)[C@H]2CCC3C4C[C@@H](O)[C@@]5(O)CC=CC(=O)[C@]5(C)C4CC[C@@]32C)C1 (stereo partly drawn)	> 100	> 100	> 100	57.1	> 100	> 100	–	> 100	> 100	> 100
Oc1cccc(-c2nc3cc(F)ccc3s2)c1	52.9	52.3	88.5	52.5	34.6	71.3	50.3	43.2	14.2	–
C=C(Cl)C(C)(Cl)CCC(Br)C(C)(C)Cl (stereo not drawn)	47.7	33.1	> 100	29.3	42.9	31.8	48.1	37.6	–	57.8
CSc1sc2ccccc2[s+]1	> 100	> 100	> 100	> 100	> 100	> 100	–	> 100	–	–
O=C1O[C@H](c2ccc3c(c2)OCO3)[C@H]2CO[C@@H](c3ccc4c(c3)OCO4)[C@@H]12	> 100	> 100	> 100	> 100	> 100	> 100	> 100	> 100	–	> 100
Cn1c(COC(=O)Nc2ccccc2)c(COC(=O)Nc2ccccc2)c2ccc3cc(Cl)c(Cl)cc3c21	24.1	–	> 75	26.5	23.4	29	41.4	17.9	5.41	29
COc1cc(OC)c(C2c3cc4c(cc3OC(N3CCCC3)C2C)OCO4)c(OC)c1 (stereo not drawn)	69	–	87.9	25.8	30.2	30.7	46.2	57.7	> 100	18.1
O=C1c2ccccc2C2(c3ccc(Cl)cc3)N[C@H]3CCCC[C@@H]3N12 (stereo partly drawn)	–	> 100	> 100	> 100	> 100	> 100	> 100	–	> 100	> 100
O=C1c2cccnc2-c2nccc3c2c1nc1cc(Br)ccc13	0.527	0.563	0.309	0.568	0.338	0.609	0.325	–	0.848	0.942
O=C1/C(=C/c2ccc(Cl)cc2)CSc2ccccc21	–	71.4	> 100	36.1	> 100	–	44.1	41.8	58.3	75.5
